We go through nine compounds from patent EP0216105A1, “Diazaphosphorines, process for their preparation and their use as pesticide” (priority 1985, dated 1987).

Assay [1] deals with Larven (L3) des Meerrettichkäfers (Phaedon cochleariae). The assay is described as follows: Phaedon larvae test (treated cabbage leaves). To be noted: Phaedon cochleariae larvae (L3) on treated Brassica oleracea leaves; compared with the prior art; figures not given. It is filed as in vivo. An excerpt: (§1) • Lösungsmittel: 3 Gewichtsteile Aceton • Emulgator: 1 Gewichtsteil Alkylarylpolyglykolether
Zur Herstellung einer zweckmäßigen Wirkstoffzubereitung vermischt man 1 Gewichtsteil Wirkstoff mit der angegebenen Menge Lösungsmittel und der angegebenen Menge Emulgator und verdünnt das.Konzentrat mit Wasser auf die gewünschte Konzentration.
Kohlpflanzen (Brassica oleracea) werden mit der Wirkstoffzubereitung der gewünschten Konzentration behandelt. Ein Blatt der behandelten Pflanze wird in eine Plastikdose gelegt und mit Larven (L3) des Meerrettichkäfers (Phaedon cochleariae) besetzt. Nach 2 und 4 Tagen wird jeweils ein weiters Blatt von derselben Pflanze für die Nachfütterung verwendet.
Nach der gewünschten Zeit wird die Abtötung in % bestimmt. Dabei bedeutet 100 X, daß alle Käferlarven abgetötet wurden.

The subject of assay [2] is Mückenlarven (L4) (Aedes aegypti). The assay is described as follows: Aedes test (larvae in aqueous preparation). The class given is in vivo. The note with it: 20 Aedes aegypti larvae (L4) per glass; compared with the prior art; figures not given. From the text:
• Löcungcmittal: 3 Gewichtsteile Aceton • Emulgator: 1 Gewichtsteil Alkylarylpolyglykolether
Zur Herstellung einer zweckmäßigen Wirkstoffzubereitung vermischt man 1 Gawichtcteil Wirkstoff mit der angegebenen Menge Löcungcmittel und der angegebenen Menge Emulgator und verdünnt das Konzentrat mit Wasser auf die gewünschte Konzentrationen.
Man füllt die wässrigen Wirkctoffzubereitungen in Gläser und setzt anschließend 20 Mückenlarven (L4) (Aedes aegypti) in jedes Glas ein.
Nach der gewünschten Zeit wird die Abtötung in % bestimmt. Dabei bedeutet 100 X, daß alle Tiere abgetötet wurden; 0 % bedeutet, daß keine Tiere abgetötet wurden.

For assay [3], the system named is Lucilia cuprina res.-Larven. The assay is described as follows: Test with resistant Lucilia cuprina larvae. The class given is in vivo. To be noted: horse meat, after 24 hours, compared with the prior art, figures not given. An excerpt: Test mit Lucilia cuprina resistent-Larven
• Emulgator: 35 Gewichtsteile Ethylenglykolmonomethylether • 35 Gewichtsteile Nonylphenolpolyglykolether
Zur Herstellung einer zweckmäßigen Wirkstoffzubereitung vermischt man drei Gewichtsteile Wirkstoff mit sieben Gewichtsteilen des oben angegebenen Gemisches und verdünnt das so erhaltene Konzentrat mit Wasser auf die jeweils gewünschte Konzentration.
Etwa 20 Lucilia cuprina res.-Larven werden in ein Teströhrchen gebracht, welches ca. 1 cm^3 Pferdefleisch und O,5 ml der Wirkstoffzubereitung enthält. Nach 24 Stunden wird der Abtötungsgrad bestimmt.

In another assay the test system is Caenorhabditis elegans. In words: In vitro nematode test. To be noted: concentration at which reproduction is prevented, 7 days at 22°C; for minimal effective concentration: Caenorhabditis elegans, 168 h, read-out: Dosis effectiva. The procedure:
10-^4 g Wirkstoff wurden in 1 ml Wasser oder 0,1 ml Dimethylsulfoxid (DMSO) gelöst. Diese Lösung wurde auf eine Replica-Platte gegeben. Dazu wurden 2 ml einer E-coli-Suspension gegeben, in der man 10-20 weibliche Tiere oder Larven von Caenorhabditis elegans in 0,5 ml M9 Pufferlösung gegeben hat. Die E-coli-Suspension wurde hergestellt indem man 300 ml einer Ubernachthalter eines Uracil-bedürftigen E-coli-Stammes mit 1,8 1 steriler M 9 Pufferlösung versetzte.
Der Versuchsansatz wurde 7 Tage bei 22°C inkubiert und danach ausgewertet. Es wurde bewertet inwieweit der Wirkstoff die Vermehrung beeinträchtigt und die Konzentration angegeben bei der die Vermehrung verhindert wird.

Another assay relates to Haemonchus contortus. The assay is described as follows: In vivo nematode test, infected sheep (egg count in faeces). Also on record: species or system Schafe. To be noted: sheep infected with normally sensitive or benzimidazole-resistant Haemonchus contortus, oral, pure active substance in gelatin capsules, worm egg count before and after treatment; for minimal effective dose: read-out: Dosis effectiva. From the text:
Haemonchus contortus 1 Schaf
Experimentell mit normal empfindlichen bzw. mit gegen Benzimidazol-Anthelmintika resistenten Haemonchus contortus infizierte Schafe wurden nach Ablauf der Präpatenzzeit des Parasiten behandelt. Die Wirkstoffe wurden als reiner Wirkstoff in Gelatinkapseln oral appliziert.
Der Wirkungsgrad wird dadurch bestimmt, daß man die mit dem Kot ausgeschiedenen Wurmeier vor und nach der Behandlung quantitativ auszählt.
Ein völliges Sistieren der Eiausscheidung nach der Behandlung bedeutet, daß die Würmer abgetrieben wurden oder so geschädigt sind, daß sie keine Eier mehr produzieren.

Assay [4] deals with Raupe (L5) der Art Spodoptera frugiperda. In words: Spodoptera test (treated artificial diet discs). It is filed as in vivo. The note with it: Spodoptera frugiperda caterpillars (L5) on treated artificial diet; compared with the prior art; figures not given.
From the text: as §1
Zur Herstellung einer zweckmäßigen Wirkstoffzubereitung vermischt man 1 Gewichtsteil Wirkstoff mit der angegebenen Menge Lösungsmittel und der angegebenen Menge Emulgator und verdünnt das Konzentrat mit Wasser auf die gewünschte Konzentrationen.
Kunstfutterscheiben, die in Plastikdosen liegen, werden durch Beträufeln mit der Wirkstoffzubereitung der gewünschten Konzentration behandelt. Nach Eindringen der Lösung besetzt man die Plastikdosen mit je 1 Raupe (L5) der Art Spodoptera frugiperda, wobei je Versuchsglied 5 Wiederholungen aufgestellt werden. Nach der Verpuppung legt man die Tiere eines Versuchsglieds in eine größere Dose. Nach der gewünschten Zeit wird die Abtötung in % bestimmt. Dabei bedeutet 100 X, daß alle Tiere abgetötet wurden; 0 X bedeutet, daß keine Tiere abgetötet wurden.

The subject of assay [5] is Musca domestica-tmultiresistent) Maden. In words: Fly maggot development inhibition test. It is filed as in vivo. The note with it: Musca domestica maggots on treated filter paper, 14 days; compared with the prior art; figures not given. The procedure: Fliegenmaden-Entwicklungshommungstest Testtiere: Musca domestica-tmultiresistent) Maden Lösungsmittel: Aceton
2 Gewichtsteile Wirkstoff werden in 1 000 Volumenteilen Lösungsmittel aufgenommen. Die so erhaltene Lösung wird mit weiteren Lösungsmitteln auf die gewünschten Konzentrationen verdünnt.
2,5 ml Wirkstofflösung werden in eine Petrischale pipettiert. Auf dem Boden der Petrischale befindet sich ein Filterpapier mit einem Durchmesser von etwa 9,5 cm. Die Petrischale bleibt so lange offen stehen, bis das Lösungsmittel vollständig verdunstet ist. Je nach Konzentration der Wirkstofflösung ist die Menge Wirkstoff pro m^2 Filterpapier verschieden hoch. Anschließend gibt man etwa 25 Testtiere in die Petrischale und bedeckt sie mit einem Glasdeckel.
14 Tage nach Ansetzen der Versuche wird die Zahl der geschlüpften Fliegen kontrolliert. Bestimmt wird der X-Satz der Schlüpfhemmung im Vergleich zur unbehandelten Kontrolle.

In a further assay the test system is Strongyloides ratti. In words: In vivo nematode test, infected rats. Also on record: species or system Ratten. To be noted: dose at which 95% of the parasites were killed, oral by gavage on three consecutive days from day 7 after infection; for ED95: Strongyloides ratti, killed day 13, read-out: effektive Dosis. An excerpt: Experimentell mit Strongyloides ratti infizierte Ratten werden 7 Tage nach der Infektion an drei aufeinanderfolgenden Tagen oral mittels Schlundsonde behandelt. Die Tiere werden 13 Tage nach der Infektion getötet und die Zahl der Parasiten bestimmt. Es wird die […] angegeben, bei der 95% der Parasiten abgetötet wurden (effektive Dosis): […]

The next assay deals with Hymenolepis nana. In words: In vivo nematode test, infected mice. Also on record: species or system Mäuse. The note with it: Rodentolepis nana, dose at which 95% of the parasites were killed, oral by gavage on four consecutive days from day 10 after infection, killed day 17, read-out: effektive Dosis. From the text:
Experimentell mit Hymenolepis nana infizierte Mäuse werden 10 Tage nach der Infektion an vier aufeinanderfolgenden Tagen oral mittels Schlundsonde behandelt. Die Tiere werden 17 Tage nach Infektion getötet und die Zahl der Parasiten bestimmt. Es wird die Wirkstoffkonzentration angegeben, bei der 95% der Parasiten abgetötet wurden (effektive Dosis): […]

A further assay has as its system Heterakis spumosa. The assay is described as follows: In vivo nematode test, infected mice. Also on record: species or system Mäuse. To be noted: Ganguleterakis spumosa, dose at which 95% of the parasites were killed, oral by gavage on four consecutive days from day 32 after infection, killed day 39, read-out: effektive Dosis. An excerpt:
Experimentell mit Heterakis spumosa infizierte Mäuse werden 32 Tage nach der Infektion an vier aufeinanderfolgenden Tage oral mittels Schlundsonde behandelt. Die Tiere werden 39 Tage nach der Infektion getötet und die Zahl der Parasiten bestimmt. Es wird die Wirkstoffkonzentration angegeben bei der 95% der Parasiten abgetötet wurden (effektive Dosis): […]

As for `CN1C(=O)C(C(=O)Nc2ccc(SC(F)(F)F)cc2)C(=O)N(C)P1(=O)Oc1ccc(Cl)cc1` (stereo not drawn) [Beispiel 8], the Abtötung in % entry in assay [1] and in assay [2] was “überlegene Wirksamkeit gegenüber dem Stand der Technik” each time. The Abtötungsgrad entry in assay [3] was “überlegene Wirkung gegenüber dem Stand der Technik”. In addition, the Dosis effectiva with Caenorhabditis elegans was 10 mg/L.
`CCN1C(=O)C(C(=O)Nc2ccc(Oc3cccc(C(F)(F)F)c3)cc2)C(=O)N(C)P1(=O)Oc1cccc(Cl)c1` (stereo not drawn) [Beispiel 47]: the minimal effective dose with Haemonchus contortus is 10 mg/kg.
For the compound `CN1C(=O)C(C(=O)Nc2ccc(Oc3ccc(C(F)(F)F)cc3)cc2)C(=O)N(C)P1(=O)Oc1ccc(Cl)cc1` (stereo not drawn) [Beispiel 3], the minimal effective dose in the assay with Haemonchus contortus stood at 50 mg/kg.
For the compound `CN1C(=O)C(C(=O)Nc2ccc(OC(F)(F)F)cc2)C(=O)N(C)P1(=S)Oc1ccccc1` (stereo not drawn) [Beispiel 7], the Abtötung in % result in [4] and in assay [2] was “überlegene Wirksamkeit gegenüber dem Stand der Technik” each time. In addition, in assay [5], the “X-Satz der Schlüpfhemmung im Vergleich zur unbehandelten Kontrolle” value is “überlegene Wirksamkeit gegenüber dem Stand der Technik”. In the assay with Caenorhabditis elegans, the minimal effective concentration was 10 µg/mL. Besides, the ED95 in the assay with Strongyloides ratti stood at 50 mg/kg. Also, in the assay on Haemonchus contortus, the minimal effective dose turned out to be 50 mg/kg.
Regarding `CN1C(=O)C(C(=O)Nc2ccc(SC(F)(F)F)cc2)C(=O)N(C)P1(=O)Oc1ccc(Cl)cc1` (stereo not drawn) [Beispiel 24], the Abtötung in % entry in [4] is given as “überlegene Wirksamkeit gegenüber dem Stand der Technik”. Also, in [5], the “X-Satz der Schlüpfhemmung im Vergleich zur unbehandelten Kontrolle” value was “überlegene Wirksamkeit gegenüber dem Stand der Technik”. Moreover, the Abtötungsgrad entry in assay [3] is “überlegene Wirkung gegenüber dem Stand der Technik”. In addition, in the assay on Caenorhabditis elegans, the minimal effective concentration was 10 µg/mL. In addition, in the assay with Strongyloides ratti, the ED95 worked out at 10 mg/kg. The minimal effective dose in the assay with Haemonchus contortus was 10 mg/kg.
On to `CN1C(=O)C(C(=O)Nc2ccc(Cl)c(C(F)(F)F)c2)C(=O)N(C)P1(=O)Oc1ccc(Cl)cc1` (stereo not drawn) [Beispiel 9], for which the Abtötung in % result in assay [4] and in [2] was “überlegene Wirksamkeit gegenüber dem Stand der Technik” throughout. In the assay with Caenorhabditis elegans, the minimal effective concentration came to 10 µg/mL. Besides, the ED95 with Strongyloides ratti came to 25 mg/kg; in the assay with Hymenolepis nana, 50 mg/kg; in the assay with Heterakis spumosa, 25 mg/kg. Further, in the assay with Haemonchus contortus, the minimal effective dose came to 25 mg/kg.
As for `CN1C(=O)C(C(=O)Nc2ccc(Cl)c(C(F)(F)F)c2)C(=O)N(C)P1(=O)Oc1ccc(Cl)cc1` (stereo not drawn) [Beispiel 25], the Abtötung in % entry in assay [1] is recorded as “überlegene Wirksamkeit gegenüber dem Stand der Technik”. The “X-Satz der Schlüpfhemmung im Vergleich zur unbehandelten Kontrolle” value in [5] is recorded as “überlegene Wirksamkeit gegenüber dem Stand der Technik”. Further, the Abtötungsgrad entry in assay [3] is “überlegene Wirkung gegenüber dem Stand der Technik”. In the assay on Strongyloides ratti (killed day 13), the “effektive Dosis” value came to 25 mg/kg. The compound also registered a Dosis effectiva in the assay with Haemonchus contortus of 25 mg/kg.
Consider `CN1C(=O)C(C(=O)Nc2ccc(OC(F)(F)F)cc2)C(=O)N(C)P1(=O)Oc1ccccc1` (stereo not drawn) [Beispiel 16], for which the Abtötung in % entry in assay [1], in [4] and in assay [2] was “überlegene Wirksamkeit gegenüber dem Stand der Technik” throughout. The minimal effective concentration with Caenorhabditis elegans amounted to 10 µg/mL.
For the compound `CN1C(=O)C(C(=O)Nc2ccc(Cl)c(C(F)(F)F)c2)C(=O)N(C)P1(=O)Oc1ccccc1` (stereo not drawn) [Beispiel 12], the Abtötung in % result in assay [1] and in assay [2] was “überlegene Wirksamkeit gegenüber dem Stand der Technik” in each case. The minimal effective concentration in the assay on Caenorhabditis elegans was found to be 10 µg/mL. The ED95 with Strongyloides ratti came out at 100 mg/kg; with Heterakis spumosa, 25 mg/kg.
